Patent publication US9468662B2, “Use of the PAT nonapeptide in the treatment and prevention of neurodegenerative diseases” (ORPHIT, priority 2010, dated 2016)
No end group written: not given here.

Key:
[1] = system: rat primary dopaminergic neurons; assay: Cellular model of Parkinson's disease, survival of rat primary dopaminergic neurons after 6-hydroxydopamine injury; format: cell-based
Source text: 6-hydroxydopamine (6-OHDA) is a selective catecholaminergic neurotoxin that is not only used as a pharmacological agent able to trigger PD-like stigmata (Sauer H. and Oertel W H Neuroscience 1994; 59: 401 and Cass W A et al. Brain Res. 2002; 938: 29) but also likely corresponds to a natural dopaminergic catabolite that accumulates in PD-affected brains and that appears to strongly contribute to this pathology (Jellinger K. et al. J. Neural. Transm. 1995; 46: 297). For this reason, 6-OHDA-induced dopaminergic neurotoxicity in mice is widely used as a model for PD research. Because 6-OHDA also induces neurodegeneration of dopaminergic neurons in vitro, it provides a useful model of PD. In this in vitro test mesencephalic dopaminergic neurons are exposed to 6-OHDA injury. […] After 24 h of intoxication, viable dopaminergic neurons are visualized and quantified by staining with a monoclonal Anti-Tyrosine Hydroxylase (TH) antibody. Tyrosine Hydroxylase is the first and rate-limiting enzyme involved in the biosynthesis of catecholamines like dopamine and norepinephrin from Tyrosine and has a key role in the physiology of adrenergic neurons. Tyrosine hydroxylase is commonly used as a marker for dopaminergic neurons, which is particularly relevant for research in Parkinson's disease.
Rat dopaminergic neurons were cultured as described by Schinelli et al. J. Neurochem. 1988; 50: 1900 and Visanji N P et al. FASEB J. 2008; 22: 2488. Briefly, the midbrains obtained from 15-day old rat embryos (Janvier, France) were dissected under a microscope. The embryonic midbrains were removed and placed in ice-cold medium of Leibovitz (L15) containing 2% of Penicillin-Streptomycin (PS) and 1% of bovine serum albumin (BSA). The ventral portion of the mesencephalic flexure, a region of the developing brain rich in dopaminergic neurons, was used for the cell preparations.
The midbrains were dissociated by trypsinisation for 20 min at 37° C. (Trypsin EDTA 1X). […] Viable cells were counted in a Neubauer cytometer using the trypan blue exclusion test. […]

[2] = system: rat primary GABAergic medium spiny neurons; assay: Cellular model of Huntington's disease, survival of rat primary GABAergic medium spiny neurons after glutamate injury; format: cell-based
Source text: GABAergic medium spiny neurons (MSNs) in the striatum represent the mostly affected cell population in HD brain. Being the main neuronal cell type of the striatum (85% in humans), GABAergic MSNs play a central role in the clinical manifestation of HD. GABA is viewed as the neurotransmitter that inhibits spontaneous involuntary movements, therefore loss of GABAergic MSNs is responsible for chorea development and other involuntary movements. The exquisite vulnerability of MSNs of striatum to degeneration in HD is caused by glutamate excitotoxicity that leads to neuronal dysfunction and death. Excessive activation of NMDA glutamate receptors is observed in post-mortem HD brain tissue (Kumar P. et al. Pharmacol. Rep. 2010; 62: 1). […] After 24 h of intoxication, viable GABAergic neurons are visualized and quantified by staining with a monoclonal anti-Glutamic Acid Decarboxylase antibody (specific for isoform GAD67). […]
For each condition, 30 pictures per well were acquired (representing 80% of the total surface of the well) using ImageXpress (Molecular device) equipped with a LED at 20× magnification. […] The number of GAD67-positive neurons was automatically analyzed using MetaXpress software (Molecular device). […] All values were expressed as mean+/−SEM (s.e. mean) (n=6 wells per condition per culture).

[3] = Crossing of the blood-brain barrier, inferred from activity by intra-peritoneal route; format: in vivo; conditions: concluded from biological activity after intra-peritoneal administration
Source text: To cross the BBB, persons skilled in the art know that the molecular and physicochemical properties of the molecule must fulfill the 5 criteria described by Lipinski et al. (1997). Adv Drug Del Rev 23: 3-25 (amongst them a low molecular weight, its hydrophobicity, its charge etc. . . . ).

NCCc1cc(O)c(O)cc1O [6-OHDA, 6-hydroxydopamine, reference compound]
reduction of survival of TH-positive dopaminergic neurons compared to control culture conditions ([1]; 6-OHDA 20 μM, 24 h, no protective pre-treatment): 31%

N[C@@H](CCC(=O)O)C(=O)O [glutamate, reference compound]
reduction of survival of GAD67-positive MSN compared to control culture conditions ([2]; glutamate 10 μM, 20 min, read after 24 h, no protective pre-treatment): 38%

EAKSQGGSD [PAT peptide, Glu-Ala-Lys-Ser-Gln-Gly-Gly-Ser-Asp (EAKSQGGSD)]
survival of TH-positive dopaminergic neurons (% of control condition) ([1]; PAT 10 nM, 1 h pre-incubation, then 6-OHDA 20 μM for 24 h): 100%
passage across the blood-brain barrier [3]: crosses the BBB

B1: BNDF: survival promoting brain derived neurotrophic factor used as a positive control (protein, UniProt P23560 19-247, looked up)
Neurotrophic factor BDNF …: APMKEANIRGQGGLAYPGVRTHGTLESVNGPKAGSRGLTSLADTFEHVIEELLDEDQKVRPNEENNKDADLYTSRVMLSSQVPLEPPLLFLLEEYKNYLDAANMSMRVRRHSDPARRGELSVCDSISEWVTAADKKTAVDMSGGTVTVLEKVPVSKGQLKQYFYETKCNPMGYTKEGCRGIDKRHWNSQCRTTQSYVRALTMDSKKRIGWRFIRIDTSCVCTLTIKRGR
protection of TH-positive neurons from 6-OHDA-induced cell death ([1]; BDNF 50 ng/mL (2 nM), 1 h pre-incubation, 6-OHDA 20 μM 24 h): fully protected
survival of GAD67-positive neurons (cell survival, % of control) ([2]; BDNF 50 ng/mL (2 nM), 1 h pre-incubation, glutamate 10 μM 20 min, then 24 h): 81%
